The structures appear in SMILES notation. ≈ marks a conversion by molar mass, not a printed value.

Our source for the MIC, ED50 and LD50 values is ChEMBL document CHEMBL1124630, “Fluoronaphthyridines and quinolones as antibacterial agents. 1. Synthesis and structure-activity relationships of new 1-substituted derivatives” (J Med Chem, 1989).

For data set [1], the system named is Escherichia coli. The data set is described as follows: In vitro antibacterial activity against Escherichia coli (A 15119). Format: functional.
The test system of data set [2] is Pseudomonas aeruginosa. The data set is described as follows: In vitro antibacterial activity against Pseudomonas aeruginosa (A 9843). Format: functional.
Data set [3] concerns Enterobacter cloacae. The data set is described as follows: In vitro antibacterial activity against Enterobacter cloacae (A 9656). In kind it is functional.
Data set [4] has as its system Morganella morganii. The data set is described as follows: In vitro antibacterial activity against Morganella morganii (A 15153). In kind it is functional.
Data set [5] has as its system Staphylococcus aureus. The data set is described as follows: In vitro antibacterial activity against Staphylococcus aureus Smith (A9537). Format: functional.
Data set [6] has as its system Klebsiella pneumoniae. The data set is described as follows: In vitro antibacterial activity against Klebsiella pneumoniae (A 9664). Format: functional.
For data set [7], the system named is Escherichia coli. The data set is described as follows: In vivo efficacy in systemic infection due to Escherichia coli (A 15119) in mice. In kind it is functional. To be noted: read-out: PD50.
Data set [8] relates to Staphylococcus aureus. The data set is described as follows: In vivo efficacy in systemic infection due to Staphylococcus aureus Smith (A 9537) in mice. In kind it is functional. To be noted: read-out: PD50.
Data set [9] concerns Klebsiella pneumoniae. The data set is described as follows: In vivo efficacy in systemic infection due to Klebsiella pneumoniae (A 9664) in mice. In kind it is functional. The settings on record: read-out: PD50.
Data set [10] relates to Pseudomonas aeruginosa. The data set is described as follows: In vivo efficacy in systemic infection due to Pseudomonas aeruginosa (A 9843) in mice. In kind it is functional. To be noted: read-out: PD50.
Data set [11] is described as follows: Lethal dose of compound in OF1-strain female swiss mice after oral administration. To be noted: mouse, in vivo. In kind it is toxicity, organism-based.
Where [12] appears, read: Escherichia coli, read-out: MIC.
The mark [13] stands for this setting: Pseudomonas aeruginosa, read-out: MIC.
Setting [14] is: Enterobacter cloacae, read-out: MIC.
[15] abbreviates: Morganella morganii, read-out: MIC.
The mark [16] stands for this setting: Staphylococcus aureus, read-out: MIC.
The mark [17] stands for this setting: Klebsiella pneumoniae, read-out: MIC.

As to `CCn1cc(C(=O)O)c(=O)c2cc(F)c(N3CCNCC3)nc21` [ENOXACIN], the minimal inhibitory concentration (MIC) – broadly, the lowest concentration that inhibits growth of the organism – came out at 0.13 µg/mL (≈ 0.406 µM) in data set [1] (setting [12]); 0.5 µg/mL (≈ 1.56 µM) in data set [2] (setting [13]); 0.5 µg/mL (≈ 1.56 µM) in data set [3] (setting [14]); 0.13 µg/mL (≈ 0.406 µM) in [4] (setting [15]); 0.25 µg/mL (≈ 0.78 µM) in data set [5] (setting [16]); 0.5 µg/mL (≈ 1.56 µM) in data set [6] (setting [17]).

For the compound `O=C(O)c1cn(-c2ccc(F)cc2)c2cc(N3CCNCC3)c(F)cc2c1=O` [SARAFLOXACIN], the MIC in data set [1] (setting [12]) turned out to be 0.05 µg/mL (≈ 0.13 µM); in data set [2] (setting [13]), 0.39 µg/mL (≈ 1.01 µM); in data set [5] (setting [16]), 0.2 µg/mL (≈ 0.519 µM); in data set [6] (setting [17]), 0.02 µg/mL (≈ 0.0519 µM).

Take `O=C(O)c1cn(CC2CC2)c2cc(N3CCNCC3)c(F)cc2c1=O`: the minimum inhibitory concentration (MIC) in data set [1] (setting [12]) amounted to 0.5 µg/mL (≈ 1.45 µM); in [2] (setting [13]), 4 µg/mL (≈ 11.6 µM); in data set [3] (setting [14]) it was 4 µg/mL (≈ 11.6 µM); in data set [4] (setting [15]), 1 µg/mL (≈ 2.9 µM); in data set [5] (setting [16]), 1 µg/mL (≈ 2.9 µM); in [6] (setting [17]), 2 µg/mL (≈ 5.79 µM).

On to `CC1(n2cc(C(=O)O)c(=O)c3cc(F)c(N4CCNCC4)cc32)CCC1`, for which the MIC in data set [1] (setting [12]) is 0.25 µg/mL (≈ 0.696 µM); in data set [2] (setting [13]), 8 µg/mL (≈ 22.3 µM); in [3] (setting [14]) it was 1 µg/mL (≈ 2.78 µM); in data set [4] (setting [15]) it was 0.5 µg/mL (≈ 1.39 µM); in data set [5] (setting [16]), 0.5 µg/mL (≈ 1.39 µM); in data set [6] (setting [17]) it was 2 µg/mL (≈ 5.56 µM).

For the compound `O=C(O)c1cn(C2CC2)c2nc(N3CCNCC3)c(F)cc2c1=O`, the minimum inhibitory concentration (MIC) in [1] (setting [12]) stood at 0.06 µg/mL (≈ 0.181 µM); in [2] (setting [13]) it was 0.06 µg/mL (≈ 0.181 µM); in data set [3] (setting [14]) it was 0.06 µg/mL (≈ 0.181 µM); in data set [4] (setting [15]), 0.06 µg/mL (≈ 0.181 µM); in data set [5] (setting [16]) it was 0.25 µg/mL (≈ 0.752 µM); in [6] (setting [17]), 0.06 µg/mL (≈ 0.181 µM). The ED50 in data set [7] was 0.5 mg/kg; in data set [8], 6.7 mg/kg; in data set [9], 2.2 mg/kg; in data set [10] it was 3.6 mg/kg.

Regarding `O=C(O)c1cn(C23CC4CC(CC(C4)C2)C3)c2cc(N3CCNCC3)c(F)cc2c1=O`, the MIC in [1] (setting [12]) is 2 µg/mL (≈ 4.7 µM); in data set [2] (setting [13]) it was 63 µg/mL (≈ 148 µM); in data set [3] (setting [14]), 4 µg/mL (≈ 9.4 µM); in data set [4] (setting [15]) it was 32 µg/mL (≈ 75.2 µM); in data set [5] (setting [16]), 8 µg/mL (≈ 18.8 µM); in data set [6] (setting [17]), 8 µg/mL (≈ 18.8 µM).

With `O=C(O)c1cn(C2(c3ccccc3)CC2)c2cc(N3CCNCC3)c(F)cc2c1=O`, the MIC turned out to be 0.13 µg/mL (≈ 0.319 µM) in [1] (setting [12]); 4 µg/mL (≈ 9.82 µM) in data set [2] (setting [13]); 0.25 µg/mL (≈ 0.614 µM) in data set [3] (setting [14]); 0.25 µg/mL (≈ 0.614 µM) in [4] (setting [15]); 0.13 µg/mL (≈ 0.319 µM) in data set [5] (setting [16]); 0.25 µg/mL (≈ 0.614 µM) in data set [6] (setting [17]).

For the compound `CC1CC1n1cc(C(=O)O)c(=O)c2cc(F)c(N3CCNCC3)cc21` (stereo in doubt; 12), the MIC was found to be 0.06 µg/mL (≈ 0.174 µM) in [1]; 2 µg/mL (≈ 5.79 µM) in data set [2]; 0.13 µg/mL (≈ 0.376 µM) in [3]; 1 µg/mL (≈ 2.9 µM) in [4]; 1 µg/mL (≈ 2.9 µM) in data set [5]; 2 µg/mL (≈ 5.79 µM) in data set [6].

Regarding `O=C(O)c1cn(C2CC=CC2)c2cc(N3CCNCC3)c(F)cc2c1=O`, the MIC in data set [1] (setting [12]) was 1 µg/mL (≈ 2.8 µM); in data set [2] (setting [13]), 8 µg/mL (≈ 22.4 µM); in [3] (setting [14]) it was 8 µg/mL (≈ 22.4 µM); in data set [4] (setting [15]), 8 µg/mL (≈ 22.4 µM); in [5] (setting [16]) it was 2 µg/mL (≈ 5.6 µM); in data set [6] (setting [17]), 1 µg/mL (≈ 2.8 µM).

As to `O=C(O)c1cn(Cc2ccccc2)c2cc(N3CCNCC3)c(F)cc2c1=O`, the MIC in data set [1] (setting [12]) was 0.25 µg/mL (≈ 0.655 µM); in data set [2] (setting [13]) it was 0.5 µg/mL (≈ 1.31 µM); in [3] (setting [14]), 0.5 µg/mL (≈ 1.31 µM); in data set [4] (setting [15]), 4 µg/mL (≈ 10.5 µM); in data set [5] (setting [16]), 0.5 µg/mL (≈ 1.31 µM); in data set [6] (setting [17]) it was 0.5 µg/mL (≈ 1.31 µM).

On to `O=C(O)c1cn(C2CCC2)c2cc(N3CCNCC3)c(F)cc2c1=O`, for which the minimum inhibitory concentration (MIC) in data set [1] (setting [12]) is 0.13 µg/mL (≈ 0.376 µM); in data set [2] (setting [13]), 1 µg/mL (≈ 2.9 µM); in data set [3] (setting [14]), 1 µg/mL (≈ 2.9 µM); in data set [4] (setting [15]), 0.5 µg/mL (≈ 1.45 µM); in [5] (setting [16]), 0.5 µg/mL (≈ 1.45 µM); in data set [6] (setting [17]), 0.13 µg/mL (≈ 0.376 µM).

In the case of `CC1CC1n1cc(C(=O)O)c(=O)c2cc(F)c(N3CCNCC3)cc21` (stereo in doubt; 13), the MIC is 0.13 µg/mL (≈ 0.376 µM) in data set [1]; 1 µg/mL (≈ 2.9 µM) in data set [2] (setting [13]); 0.5 µg/mL (≈ 1.45 µM) in [3]; 0.25 µg/mL (≈ 0.724 µM) in data set [4]; 0.13 µg/mL (≈ 0.376 µM) in data set [5]; 1 µg/mL (≈ 2.9 µM) in data set [6] (setting [17]).

Regarding `CC1CCC1n1cc(C(=O)O)c(=O)c2cc(F)c(N3CCNCC3)cc21` (stereo unspecified), the MIC amounted to 2 µg/mL (≈ 5.56 µM) in data set [1] (setting [12]); 32 µg/mL (≈ 89 µM) in [2] (setting [13]); 32 µg/mL (≈ 89 µM) in [3] (setting [14]); 16 µg/mL (≈ 44.5 µM) in data set [4] (setting [15]); 4 µg/mL (≈ 11.1 µM) in data set [5] (setting [16]); 4 µg/mL (≈ 11.1 µM) in data set [6] (setting [17]).

Take `CCn1cc(C(=O)O)c(=O)c2cc(F)c(N3CCNCC3)cc21` [NORFLOXACIN]: the MIC was determined as 0.13 µg/mL (≈ 0.407 µM) in data set [1] (setting [12]); 0.5 µg/mL (≈ 1.57 µM) in [2] (setting [13]); 0.06 µg/mL (≈ 0.188 µM) in [3] (setting [14]); 0.015 µg/mL (≈ 0.047 µM) in data set [4] (setting [15]); 0.25 µg/mL (≈ 0.783 µM) in data set [5] (setting [16]); 0.03 µg/mL (≈ 0.0939 µM) in [6] (setting [17]). In addition, the ED50 in data set [7] amounted to 3 mg/kg; in data set [8] it was 10 mg/kg; in data set [9] it was 8 mg/kg; in data set [10], 16 mg/kg. In addition, the median lethal dose (LD50) (as a rule, the dose at which mortality reaches 50%) in data set [11] is more than 2500 mg/kg.
